Experimental data published in the SangsterLogP compilation.

assay: not given

Row | Structure (SMILES) | logP
1 | CC(=O)c1ccccc1OCC(=O)O | 1.25
2 | O=C(O)COc1ccc2c(c1)CCC2 | 2.33
3 | O=[N+]([O-])c1cccc(CO)c1 | 1.21
4 | COc1ccc(OCC(=O)O)cc1 | 1.23
5 | CC(=O)Nc1cccc(OCC(=O)O)c1 | 0.48
6 | CC(C)c1cccc(OCC(=O)O)c1 | 2.59
7 | N#Cc1cccc(O)c1 | 1.7
8 | Oc1cccc(I)c1 | 2.93
9 | O=C(O)c1cccc(C(F)(F)F)c1 | 2.95
10 | CS(=O)(=O)c1cccc(OCC(=O)O)c1 | 0.01
11 | O=C(O)COc1ccc([N+](=O)[O-])cc1 | 1.48
12 | O=C(O)COc1cccc(S(F)(F)(F)(F)F)c1 | 2.78
13 | Oc1ccccc1F | 1.71
14 | O=C(O)COc1cccc(O)c1 | 0.76
15 | CC(C)(C)c1cccc(OCC(=O)O)c1 | 2.96
16 | Cc1cccc(CO)c1 | 1.6
17 | Oc1ccccc1Br | 2.35
18 | O=C(O)COc1ccc(C2CCCCC2)cc1 | 3.79
19 | O=C(O)COc1ccc(O)cc1 | 0.65
20 | CC(=O)c1cccc([N+](=O)[O-])c1 | 1.42

Row | Structure (SMILES) | logP
21 | COC(=O)c1cccc(C(=O)O)c1 | 1.83
22 | O=C(O)Cc1ccc(Br)cc1 | 2.31
23 | O=C(O)COc1cccc(OC(F)(F)F)c1 | 2.48
24 | O=[N+]([O-])c1cccc(Br)c1 | 2.64
25 | CCCc1cccc(OCC(=O)O)c1 | 2.71
26 | CN(C)c1cccc(O)c1 | 1.56
27 | CC(=O)c1cccc(O)c1 | 1.39
28 | O=C(O)c1ccc(Br)cc1 | 2.86
29 | NC(=O)Nc1cccc(OCC(=O)O)c1 | 0.26
30 | O=C(O)COc1cccc(I)c1 | 2.44
31 | O=C(O)COc1cccc(F)c1 | 1.48
32 | O=C(O)COc1cccc(NC(=O)c2ccccc2)c1 | 1.99
33 | O=C(O)COc1cccc([N+](=O)[O-])c1 | 1.37
34 | O=C(O)COc1cccc(SC(F)(F)F)c1 | 2.86
35 | CS(=O)(=O)c1cccc(CC(=O)O)c1 | 0.06
36 | COc1ccc(CO)cc1 | 1.1
37 | O=C(O)COc1ccc2c(c1)CCCC2 | 2.67
38 | O=C(O)COc1cccc(-c2ccccc2)c1 | 3.18
39 | O=C(O)COc1ccc(C2CCCC2)cc1 | 3.41
40 | OCc1cccc(Cl)c1 | 1.94

Row | Structure (SMILES) | logP
41 | N#Cc1cccc(C(=O)O)c1 | 1.48
42 | Nc1cccc(CO)c1 | -0.05
43 | O=C(O)Cc1cccc(Cl)c1 | 2.09
44 | O=C(O)COc1ccccc1I | 2.19
45 | O=C(O)c1cccc(C(=O)O)c1 | 1.66
46 | O=C(O)COc1cccc(S(=O)(=O)C(F)(F)F)c1 | 2.19
47 | CSc1cccc(OCC(=O)O)c1 | 1.9
48 | CCCCc1cccc(OCC(=O)O)c1 | 3.18
49 | CCC(C)c1ccc(OCC(=O)O)cc1 (stereo not given) | 3.12
50 | O=C(O)COc1cccc(C(=O)O)c1 | 1.11
51 | O=C(O)Cc1cccc([N+](=O)[O-])c1 | 1.45
52 | O=C(O)COc1ccc(N=Nc2ccccc2)cc1 | 2.99
53 | CCc1cccc(O)c1 | 2.4
54 | CC(C)c1ccc(OCC(=O)O)cc1 | 2.69
55 | O=C(O)Cc1cccc(Br)c1 | 2.37
56 | O=C(O)Cc1cccc(O)c1 | 0.85
57 | Nc1cccc(F)c1 | 1.3
58 | CC(=O)Oc1ccccc1 | 1.49
59 | COc1cccc(OCC(=O)O)c1 | 1.38
60 | O=C(O)COc1cccc(Cl)c1 | 2.03

assay: method code SF-C, from DOI: 10.1021/ja01077a028

Row | Structure (SMILES) | logP
61 | N#Cc1cccc(CC(=O)O)c1 | 1.18
62 | O=C(O)COc1ccccc1Br | 2.1
63 | Cc1cccc(CC(=O)O)c1 | 1.95
64 | O=C(O)Cc1ccccc1F | 1.5
65 | O=C(O)COc1ccccc1Cl | 2.02
66 | O=C(O)Cc1cccc(C(=O)O)c1 | 1.14
67 | O=C(O)COc1ccccc1[N+](=O)[O-] | 1.22
68 | O=C(O)Cc1cccc(F)c1 | 1.65
69 | O=C(O)Cc1cccc(C(F)(F)F)c1 | 2.62
70 | COc1cccc(CC(=O)O)c1 | 1.5
